Measurements published in US20230218631A1 (priority 2020, published 2023).

Assays:
Type in all cases: in vivo
mice = assay: Sucrose pellet self-administration, extinction and cue-induced reinstatement
Description: Mice were first injected with UNC0642 (2 mg/kg, i.p) or vehicle-alone once daily for 10 days. Thirty minutes following the 10th dose, they began the first 2-hour sucrose self-administration session. The UNC0642 and vehicle injections occurred 30 minutes before the start of each sucrose self-administration, extinction, and reinstatement session. All self-administration experiments occurred in standard operant chambers with two nose-poke detectors, a house light, and a cue light and tone generator (Med Associates, Fairfield, Vt.). All sucrose-paired nose-pokes, including those during the timeout, were recorded and are reported as “paired nose pokes”. No fasting occurred during any stage of the experiment. During the 2-hour sessions, mice were trained to nose-poke in the paired side on a fixed-ratio 1 (FR1) schedule with 15-second timeout period after delivery of a single sucrose pellet. Concurrent with the pellet delivery, a cue tone and cue light (which is located immediately above the paired nose-poke port) are activated. All mice had ten self-administration sessions. […] Finally, we examined the number of nose-pokes on the paired side during timeout periods. Similar to the paired nose-poke data above, there was a slight effect on the interaction between UNC0642 treatment and sex. […] Overall, UNC0642 had no effect on sucrose-taking behavior as all groups increased their responding for sucrose pellets over time, and they learned and remembered the relationship between the reinforced (sucrose-paired) and the non-reinforced (unpaired) ports.
Sucrose-seeking behaviors were next tested in these same mice. Following a 7-day period in the home cage with ad libitum food and water, all mice began extinction training for 6 consecutive days (a model of context-associated sucrose-seeking behavior). […] Finally, light/tone cue-induced reinstatement behavior (a model of discreet cue-induced sucrose-seeking behavior) was tested one day after the 6th extinction session in a single 2-hour session. Mice were allowed to nose-poke for light and tone cues without receiving pellets. […] We also found UNC0642 had no effect on UNC0642 on the number of unpaired nose pokes during cue induced reinstatement of sucrose pellet self-administration (FIG. 9J; Three-Way ANOVA, Day: F1,26=6.739, p=0.0153, Sex: F1,26=6.739, p=0.0153, no other significant effects) and UNC0642 had no effect on the discrimination ratio between paired and unpaired nose pokes during cue-induced reinstatement of sucrose pellet self-administration (FIG. 9K; Three-Way ANOVA, Sex: F1,26=5.880, p=0.0226, no other significant effects).

[1] = system: wild-type mice (both male and female); assay: Elevated plus maze (anxiety-like behavior)
Description: These same mice were tested on a 5-minute elevated plus maze protocol at 1-3 days after their final drinking session. 30-60 minutes following an i.p. injection of either 0, 1, 2, or 4 mg/kg UNC0642, mice were allowed to freely explore the open and closed arms of the elevated plus maze. Less anxious mice typically explore the open arms more quickly and spend more time exploring the open arms. […] No statistically significant effects were observed on the time spent in the open arms, as UNC0642 had no effect on open arms time in the elevated plus maze (see FIG. 7D; One-Way ANOVA, F3,42=0.7372, p=0.5359, 1 outlier removed from the 1 mg/kg group with a Grubbs test) or on the number of entries into the open arms, meaning that UNC0642 had no effect on the number of open arm entries in the elevated plus maze (FIG. 7E; One-Way ANOVA, F3,42=1.396, p=0.2573, 1 outlier removed from the 0 mg/kg group with a Grubbs test). […] Thus, in some embodiments, it can be particularly useful for treating individuals with co-morbid psychiatric diseases and/or disorders and AUD/SUD.

[2] = system: wild-type mice (both male and female); assay: Drinking in the Dark binge-like ethanol drinking; conditions: 2 mg/kg i.p. for 10 days, 30 min before session, 20% ethanol, both sexes
Description: Since UNC0642 blocked stress-potentiated ethanol drinking in mice, as show above, we next tested whether UNC0642 could alter binge-like ethanol drinking in both sexes. Wild-type mice (both male and female) were given ethanol for 1 week in a “Drinking in the Dark” paradigm (Rhodes et al., 2005), a well-established alcohol model that is similar to binge-drinking in humans. Both male and female mice were given a single bottle of 20% ethanol in their home cage for 2 hours per day for 3 days. No alternative bottle of water was given in this experiment. On the 4th day, the access to the bottle was extended to 4 hours to model a binge-drinking session. After the first week, mice were split into even groups and were injected with UNC0642 (2 mg/kg, i.p.) or vehicle for 10 days 30 minutes before each drinking session began. Mice were tested for changes in baseline drinking and binge drinking for 2 weeks. […] Our data detected the well-documented sex differences in alcohol intake in these assays, but there was no significant interaction between sex and UNC0642 treatment.

COc1cc2c(NC3CCN(C(C)C)CC3)nc(N3CCC(F)(F)CC3)nc2cc1OCCCN1CCCC1 [UNC0642, 2-(4,4-Difluoropiperidin-1-yl)-6-methoxy-N-[1-(propan-2-yl)piperidin-4-yl]-7-[3-(pyrrolidin-1-yl)propoxy]quinazolin-4-amine]
number of sucrose pellets earned during sucrose pellet self-administration (mice; 2 mg/kg i.p. once daily, 30 min before session, FR1, FIG. 9A): no effect | number of paired nose pokes during extinction learning following sucrose pellet self-administration (mice; 2 mg/kg i.p., 6 extinction days, FIG. 9F): no effect | number of unpaired nose pokes during sucrose pellet self-administration (mice; 2 mg/kg i.p., FIG. 9C): no effect | discrimination ratio between paired and unpaired nose pokes during sucrose pellet self-administration (mice; 2 mg/kg i.p., FIG. 9D): no effect | unpaired nose-pokes during extinction learning following sucrose pellet self-administration (mice; 2 mg/kg i.p., FIG. 9G): no effect | discrimination ratio between paired and unpaired nose pokes during extinction learning (mice; 2 mg/kg i.p., FIG. 9H): no effect | number of paired nose pokes during cue induced reinstatement of sucrose pellet self-administration (mice; 2 mg/kg i.p., FIG. 9I): no effect | number of unpaired nose pokes during cue induced reinstatement of sucrose pellet self-administration (mice; 2 mg/kg i.p., FIG. 9J): no effect | discrimination ratio between paired and unpaired nose pokes during cue-induced reinstatement (mice; 2 mg/kg i.p., FIG. 9K): no effect | paired nose-pokes during self-administration, female mice (mice; 2 mg/kg i.p., female mice in UNC0642 group, Day X Treatment interaction, FIG. 9B): slight increase | timeout responding, female mice (mice; 2 mg/kg i.p., female mice in UNC0642 group, FIG. 9E): slightly higher | number of paired nose pokes during sucrose pellet self-administration (mice; 2 mg/kg i.p., overall, FIG. 9B): no overall effect | number of timeout responses on the paired nose port during sucrose pellet self-administration (mice; 2 mg/kg i.p., overall, FIG. 9E): no overall effect | time spent in the open arms of the elevated plus maze ([1]; 1, 2, 4 mg/kg i.p., FIG. 7D): no effect | number of open arm entries in the elevated plus maze ([1]; 1, 2, 4 mg/kg i.p., FIG. 7E): no effect | latency to explore the open arms of the elevated plus maze ([1]; all 3 doses (1, 2, 4 mg/kg i.p.), 30-60 min after injection, 5-minute test, both sexes, FIG. 7C): reduced the latency | single-bottle alcohol drinking, baseline 2 hour sessions ([2]; FIG. 8A): no effect | binge alcohol drinking, 4-hour binge sessions ([2]; FIG. 8B): no effect
